# Measurements taken from patent publication US20020133846A1, “Method for protecting plants” (priority 1996, published 2002).
# Where two headings read alike, the source gives them in different places.
# Tests used:
# [1] = tested on: Peronospora parasitica isolate Emwa; experiment: Action against Peronospora parasitica in Arabidopsis overexpressing NIM1 (lines 6E, 7C) and wild-type Ws; type: in vivo
# Text: The plant lines used in this example (6E and 7C) were generated from transformation of wild-type Arabidopsis thaliana plants (ecotype Ws) with the BamHI-HindIII NIM1 genomic fragment (SEQ ID NO:1—bases 1249-5655), as described above in Example 21. The fungicides metalaxyl, fosetyl, and copper hydroxide, formulated as 25%, 80%, and 70% active ingredient (ai), respectively, with a wettable powder carrier, were applied as fine mist to leaves of three week-old transgenic Ws plants constitutively expressing the NIM1 gene. The wettable powder alone was applied as a control. Three days later, plants were inoculated with a Peronospora parasitica isolate Emwa conidial suspension (1-2×10^5 spores/ml), as described in Delaney et al. (1995). Following inoculation, plants were covered to maintain high humidity and were placed in a Percival growth chamber at 17° C. with a 14-hr day/10-hr night cycle (Uknes et al., 1993). Tissue was harvested 8 days after inoculation.
# Fungal infection progression was followed for 12 days by viewing under a dissecting microscope to score development of conidiophores (Delaney, et al. (1994); Dietrich, et al. (1994)). Lactophenoltrypan blue staining of individual leaves was carried out to observe fungal growth within leaf tissue. Fungal growth was quantified using a rRNA fungal probe obtained by PCR according to White et al. (1990; PCR Protocols: A guide to Methods and Application, 315-322) using primers NS1 and NS2 and P. parasitica EmWa DNA as templates. RNA was purified from frozen tissue by phenol/chloroform extraction following lithium chloride precipitation (Lagrimini et al, 1987: PNAS, 84: 7542-7546). Samples (7.5 μg) were separated by electrophoresis through formaldehyde agarose gels and blotted to nylon membranes (Hybond-N+, Amersham) as described by Ausbel et al. (1987). Hybridizations and washing were according to Church and Gilbert (1984, PNAS, 81: 1991-1995). Relative amounts of the transcript were determined using a Phosphor Imager (Molecular Dynamics, Sunnyvale, Calif.) following manufacturers instructions. Sample loading was normalized by probing stripped filter blots with the constitutively expressed b-tubulin Arabidopsis cDNA.
# [2] = tested on: Peronospora parasitica NoCo2; experiment: whole plant or invertebrate; type: in vivo
# [3] = Cu(OH)2 0.02 g/l, NIM1 overexpression line 6E
# [4] = Cu(OH)2 0.02 g/l, NIM1 overexpression line 7C
# [5] = Cu(OH)2 0.2 g/l, NIM1 overexpression line 6E
# [6] = Cu(OH)2 0.2 g/l, NIM1 overexpression line 7C
# [7] = Cu(OH)2 2.0 g/l, NIM1 overexpression line 6E
# [8] = Cu(OH)2 2.0 g/l, NIM1 overexpression line 7C
smiles,measurement,setting,value
COCC(=O)N(c1c(C)cccc1C)C(C)C(=O)OC (racemic) [metalaxyl],inhibition at 1.2 µg/mL,"[1]; Hyaloperonospora parasitica, in Arabidopsis thaliana, Table 36, NIM1 overexpression line 6E, metalaxyl 0.0012 g/l, read-out: Fungal Growth Inhibition % O (observed)",56%
same,inhibition at 12.5 µg/mL,"[1]; Hyaloperonospora parasitica, in Arabidopsis thaliana, Table 36, NIM1 overexpression line 6E, metalaxyl 0.0125 g/l, read-out: Fungal Growth Inhibition % O (observed)",76%
same,Synergy Factor O/E,"[1]; Table 36, NIM1 overexpression line 6E + metalaxyl 0.0012 g/l",1.5
same,Synergy Factor O/E,"[1]; Table 36, NIM1 overexpression line 6E + metalaxyl 0.0125 g/l",1.1
same,inhibition at 0.02 µg/mL,"[2]; Hyaloperonospora parasitica, in Arabidopsis thaliana, read-out: Fungal Growth Inhibition % O (observed), Table 33, cim3 mutant, metalaxyl 0.02 mg/l",55.6%
same,inhibition at 0.1 µg/mL,"[2]; Hyaloperonospora parasitica, in Arabidopsis thaliana, read-out: Fungal Growth Inhibition % O (observed), Table 33, cim3 mutant, metalaxyl 0.1 mg/l",57.8%
same,inhibition at 2.5 µg/mL,"[2]; Hyaloperonospora parasitica, in Arabidopsis thaliana, read-out: Fungal Growth Inhibition % O (observed), Table 33, cim3 mutant, metalaxyl 2.5 mg/l",82.2%
same,Synergy Factor O/E,"[2]; Table 33, cim3 mutation + metalaxyl 0.1 mg/l",4.6
same,Synergy Factor O/E,"[2]; Table 33, cim3 mutation + metalaxyl 2.5 mg/l",6.6
"[Cu+2].[OH-].[OH-] [Cu(OH)2, copper hydroxide]",Fungal Growth Inhibition % O (observed),[1]; [3],20%
same,Synergy Factor O/E,[1]; [3],2.0
same,Fungal Growth Inhibition % O (observed),[1]; [4],55%
same,Synergy Factor O/E,[1]; [4],3.9
same,Fungal Growth Inhibition % O (observed),[1]; [5],14%
same,Synergy Factor O/E,[1]; [5],1.4
same,Fungal Growth Inhibition % O (observed),[1]; [6],51%
same,Synergy Factor O/E,[1]; [6],3.6
same,Fungal Growth Inhibition % O (observed),[1]; [7],66%
same,Synergy Factor O/E,[1]; [7],6.6
same,Fungal Growth Inhibition % O (observed),[1]; [8],77%
same,Synergy Factor O/E,[1]; [8],5.5
same,synergy factor,[1]; NIM1 overexpression line 7C + copper hydroxide 2.0 g/l,5.5
same,fungal growth inhibition (observed),"[1]; NIM1 overexpression line 7C, copper hydroxide 2.0 g/l",77%
"CCO[PH](=O)O [fosetyl, ethyl hydrogen phosphonate]",inhibition at 50 µg/mL,"[1]; Hyaloperonospora parasitica, in Arabidopsis thaliana, Table 37, NIM1 overexpression line 6E, fosetyl 0.05 g/l, read-out: Fungal Growth Inhibition % O (observed)",42%
same,inhibition at 500 µg/mL,"[1]; Hyaloperonospora parasitica, in Arabidopsis thaliana, Table 37, NIM1 overexpression line 6E, fosetyl 0.5 g/l, read-out: Fungal Growth Inhibition % O (observed)",83%
same,inhibition at 500 µg/mL,"[1]; Hyaloperonospora parasitica, in Arabidopsis thaliana, fosetyl 0.5 g/l, NIM1 overexpression line 7C, read-out: Fungal Growth Inhibition % O (observed)",56%
same,inhibition at 5000 µg/mL,"[1]; Hyaloperonospora parasitica, in Arabidopsis thaliana, read-out: Fungal Growth Inhibition % O (observed), Table 37, NIM1 overexpression line 6E, fosetyl 5.0 g/l",93%
same,inhibition at 5000 µg/mL,"[1]; Hyaloperonospora parasitica, in Arabidopsis thaliana, read-out: Fungal Growth Inhibition % O (observed), fosetyl 5.0 g/l, NIM1 overexpression line 7C",80%
same,Synergy Factor O/E,"[1]; Table 37, NIM1 overexpression line 6E + fosetyl 0.05 g/l",4.2
same,Synergy Factor O/E,"[1]; Table 37, NIM1 overexpression line 6E + fosetyl 0.5 g/l",6.9
same,Synergy Factor O/E,"[1]; Table 37, NIM1 overexpression line 6E + fosetyl 5.0 g/l",5.5
same,Synergy Factor O/E,"[1]; fosetyl 0.5 g/l, NIM1 overexpression line 7C",3.5
same,Synergy Factor O/E,"[1]; fosetyl 5.0 g/l, NIM1 overexpression line 7C",3.8
CSC(=O)c1cccc2nnsc12 [BTH],inhibition at 10 µM,"[2]; Hyaloperonospora parasitica, in Arabidopsis thaliana, read-out: Fungal Growth Inhibition % O (observed), Table 34, cim3 mutant, BTH 0.01 mM",16.6%
same,inhibition at 30 µM,"[2]; Hyaloperonospora parasitica, in Arabidopsis thaliana, read-out: Fungal Growth Inhibition % O (observed), Table 34, cim3 mutant, BTH 0.03 mM",73.1%
same,Synergy Factor O/E,"[2]; Table 34, cim3 mutation + BTH 0.01 mM",1.3
same,Synergy Factor O/E,"[2]; Table 34, cim3 mutation + BTH 0.03 mM",2.2
